Tested on: keratin K15 (cytokeratin 15, CK15) of human epithelial hair follicle stem cells
Experiment: Quantitative immunohistochemistry for keratin K15 in organ-cultured human hair follicles
Format: cell-based
Conditions: for relative intensity of immunohistochemistry of keratin K15: microdissected human anagen VI hair follicles in organ culture, 6 days, relative intensity of the vehicle=1
Description: The scope of the study is to determine the effects of N^1-methyl spermidine, a compound of formula (I) of this invention, on the biomarker keratin K15 (cytokeratin 15, CK15) of human epithelial hair follicle stem cells (heHFSCs). As reference on this point in the literature we can quote Kloepper JE et al. (2008), Immunophenotyping of the human bulge region: the quest to define useful in situ markers for human epithelial hair follicle stem cells and their niche. Exp Dermatol 17: 592-609.
Scalp samples were collected from two women who were submitted to surgical lifting, after obtaining their informed consent. Experiments were performed in compliance with the Helsinki principles, with the Ethics Committee's approval. Details of samples are described in Table 1 below.
J Dermatol Sci 7: SuppIS 55-72.
N^1-methyl-spermidine of the invention or spermidine or the vehicle were changed every 48 hours with the culture medium. A summary of the study procedure is presented in Table 2 below, in which N^1-methyl spermidine, the compound of formula (II) of this invention, used in the test at concentrations of 0.5 and 1.5 μM is the active substance', while spermidine was used as a control at the concentration of 0.5 μM.
The tyramide signal amplification method was used to assess the expression of keratin K15, as described in the abovementioned paper by Kloepper et al. (2008). The cryosections fixed in acetone were washed thrice for 5 minutes using the buffer (0.1 mol/L Tris-HCl, pH 7.5, containing 0.15 mol/L NaCl and 0.05% Tween 20) TNT (Tris-HCl NaCl Tween). Later, peroxidase was inhibited by washing with 3% H2O2 in phosphate buffered saline (PBS) for 15 min. Preincubation was performed with avidin and biotin for 15 minutes, and with 5% normal goat serum in TNT for 30 minutes with intermediate lavage. The Mouse Anti-Human K15 antibody (clone LHK15, Chemicon, Billerica, USA) was diluted in TNT and incubated for one night at 4° C. This incubation period was followed by a second incubation period with a secondary biotinylated Goat Anti-Mouse antibody (1:200 in TNT) for 45 minutes in RT. […] Immunohistochemistry intensity was quantified with the ImageJ software (National Institutes of Health). Stain intensity of the defined reference regions of the follicle was measured and compared between the control groups and groups treated with N^1-methyl spermidine at the concentrations of 0.5 and 1.5 μM, or with spermidine 0.5 μM. • Statistical Analysis
The statistical analysis was performed using a two tailed Student t-test for samples that were not coupled. To group the two experiments, each treatment group was compared with the control group (mean value), and the relative variation in expression was calculated.

SMILES | inductive effect towards keratin K15 compared with an equal concentration of spermidine (0.5 μM vs spermidine 0.5 μM) | relative intensity of immunohistochemistry of keratin K15 (0.5 μM) | relative intensity of immunohistochemistry of keratin K15 (1.5 μM)
CN(CCCN)CCCCN [N^1-methyl spermidine, N-(3-aminopropyl)-N^1-methyl-1,4-butandiamine] | higher than that of an equal concentration of 0.5 μM of spermidine | 1.739 | 1.806
NCCCCNCCCN [spermidine, reference compound] | – | 1.12 | –

Source: US20160030365A1, “PHARMACEUTICAL OR COSMETIC COMPOSITION SUITABLE TO PRESERVE EPITHELIAL STEM CELLS” (GIULIANI S.P.A., priority 2013, published 2016)
